Test results: patent US9328099B2, “Cyanomethylpyrazole carboxamides as janus kinase inhibitors” (Merck Sharp & Dohme Corp., priority 2011, dated 2016)

Tests used:
JAK1 = JAK1 (Homo sapiens (Human), UniProt P23458); experiment: Jak Biochemical HTRF Assay, JAK1; conditions: HTRF biochemical assay, GST-tagged catalytic domain; top concentration tested […]; read-out: JAK1 IC50
Excerpt: (§1) Jak Biochemical HTRF Assay Protocol
(§2) Subsequent reagent additions employed an Agilent Bravo.

JAK2 = JAK2 (Homo sapiens (Human), UniProt O60674); experiment: Jak Biochemical HTRF Assay, JAK2; conditions: HTRF biochemical assay, GST-tagged catalytic domain; top concentration tested […]
Excerpt: as §1, §2

Sequence of JAK2 (O60674 849-1124): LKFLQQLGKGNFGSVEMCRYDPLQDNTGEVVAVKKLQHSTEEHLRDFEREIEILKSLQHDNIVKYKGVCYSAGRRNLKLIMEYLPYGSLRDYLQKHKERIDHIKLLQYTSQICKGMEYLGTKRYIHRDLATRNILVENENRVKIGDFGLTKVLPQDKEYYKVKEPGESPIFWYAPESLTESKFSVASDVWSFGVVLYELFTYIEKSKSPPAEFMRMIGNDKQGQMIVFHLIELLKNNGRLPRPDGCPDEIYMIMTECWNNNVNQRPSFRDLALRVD
Sequence of JAK1 (P23458 875-1153): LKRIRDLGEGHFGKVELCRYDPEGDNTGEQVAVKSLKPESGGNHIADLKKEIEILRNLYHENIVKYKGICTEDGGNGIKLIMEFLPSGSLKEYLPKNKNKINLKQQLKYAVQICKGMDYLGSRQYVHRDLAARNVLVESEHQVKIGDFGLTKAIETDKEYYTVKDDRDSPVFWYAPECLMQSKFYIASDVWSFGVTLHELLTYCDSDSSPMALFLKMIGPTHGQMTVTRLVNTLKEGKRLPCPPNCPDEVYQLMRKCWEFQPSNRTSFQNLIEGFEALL

**Q.** With Cn1c(C(=O)N2CCC(CC#N)(n3cc(C(N)=O)c(Nc4ccccc4)n3)CC2)cc2ccccc21 [Example 34-26, 1-{4-(cyanomethyl)-1-[(1-methyl-1H-indol-2-yl)carbonyl]piperidin-4-yl}-3-(phenylamino)-1H-pyrazole-4-carboxamide] as the compound, how does the IC50 (JAK1) read?
**A.** Its IC50 is 10 nM.

**Q.** What about the IC50 (JAK2) of the same compound?
**A.** The IC50 was 238 nM.

**Q.** COc1ccc(C(=O)N2CCC(CC#N)(n3cc(C(N)=O)c(Nc4ccccc4)n3)CC2)cc1OC [Example 34-27, 1-{4-(cyanomethyl)-l-[(3,4-dimethoxyphenyl)carbonyl]piperidin-4-yl}-3-(phenylamino)-1H-pyrazole-4-carboxamide] was tested. Which IC50 (JAK1) did it give?
**A.** The IC50 was 32 nM.

**Q.** What about the IC50 (JAK2) of the same compound?
**A.** Its IC50 is 448 nM.

**Q.** How did the IC50 (JAK1) turn out when N#CCC1(n2cc(C(N)=O)c(Nc3ccccc3)n2)CCN(C(=O)c2cccc(N3CCOCC3)c2)CC1 [Example 34-28, 1-(4-(cyanomethyl)-1-[(3-morpholin-4-ylphenyl)carbonyl]piperidin-4-yl}-3-(phenylamino)-1H-pyrazole-4-carboxamide] was run?
**A.** Its IC50 is 92 nM.

**Q.** What about the IC50 (JAK2) of the same compound?
**A.** The IC50 was 1050 nM.

**Q.** With N#CCC1(n2cc(C(N)=O)c(Nc3ccccc3)n2)CCN(C(=O)c2ccccc2-c2ccccc2)CC1 [Example 34-29, 1-[1-(biphenyl-2-ylcarbonyl)-4-(cyanomethyl)piperidin-4-yl]-3-(phenylamino)-1H-pyrazole-4-carboxamide] as the compound, how does the IC50 (JAK1) read?
**A.** The IC50 was 387 nM.

**Q.** And the IC50 (JAK2)?
**A.** Its IC50 is 1480 nM.

**Q.** N#CCC1(n2cc(C(N)=O)c(Nc3ccccc3)n2)CCN(C(=O)Cc2ccc(C(F)(F)F)cc2)CC1 [Example 34-30, 1-[4-(cyanomethyl)-1-{[4-(trifluoromethyl)phenyl]acetyl}piperidin-4-yl]-3-(phenylamino)-1H-pyrazole-4-carboxamide] was tested. Which IC50 (JAK1) did it give?
**A.** The IC50 was 35 nM.

**Q.** And the IC50 (JAK2)?
**A.** The IC50 was 363 nM.

**Q.** What does the source list for N#CCC1(n2cc(C(N)=O)c(Nc3ccccc3)n2)CCN(C(=O)c2ccc(N3CCOCC3)cc2)CC1 [Example 34-31, 1-{4-(cyanomethyl)-1-[(4-morpholin-4-ylphenyl)carbonyl]piperidin-4-yl}-3-(phenylamino)-1H-pyrazole-4-carboxamide]?
**A.** IC50 (JAK1): 61 nM; IC50 (JAK2): 704 nM

**Q.** Which IC50 (JAK1) does the source give for N#CCC1(n2cc(C(N)=O)c(Nc3ccccc3)n2)CCN(C(=O)c2ccc3ccccc3n2)CC1 [Example 34-32, 1-[4-(cyanomethyl)-1-(quinolin-2-ylcarbonyl)piperidin-4-yl]-3-(phenylamino)-1H-pyrazole-4-carboxamide] here?
**A.** Its IC50 is 6 nM.

**Q.** What about the IC50 (JAK2) of the same compound?
**A.** Its IC50 is 166 nM.

**Q.** Which IC50 (JAK1) does the source give for N#CCC1(n2cc(C(N)=O)c(Nc3ccccc3)n2)CCN(C(=O)C(c2ccccc2)c2ccccc2)CC1 [Example 34-33, 1-[4-(cyanomethyl)-1-(diphenylacetyl)piperidin-4-yl]-3-(phenylamino)-1H-pyrazole-4-carboxamide] here?
**A.** Its IC50 is 153 nM.

**Q.** What about the IC50 (JAK2) of the same compound?
**A.** The IC50 was 711 nM.

**Q.** Which results are given for CN1CCN(c2ccc(C(=O)N3CCC(CC#N)(n4cc(C(N)=O)c(Nc5ccccc5)n4)CC3)cc2)CC1 [Example 34-34, 1-[4-(cyanomethyl)-1-{[4-(4-methylpiperazin-1-yl)phenyl]carbonyl}piperidin-4-yl] 3-(phenylamino)-1H-pyrazole-4-carboxamide]?
**A.** IC50 (JAK1): 60 nM; IC50 (JAK2): 830 nM

**Q.** What does the source list for N#CCC1(n2cc(C(N)=O)c(Nc3ccccc3)n2)CCN(C(=O)CO)CC1 [Example 34-35, 1-[4-(cyanomethyl)-1-(hydroxyacetyl)piperidin-4-yl]-3-(phenylamino)-1H-pyrazole-4-carboxamide]?
**A.** IC50 (JAK1): 44 nM; IC50 (JAK2): 248 nM

**Q.** With CCC(=O)N1CC(CC#N)(n2cc(C(N)=O)c(Nc3ccccc3)n2)C1 [Example 34-36, 1-[3-(cyanomethyl)-1-propanoylazetidin-3-yl]-3-(phenylamino)-1H-pyrazole-4-carboxamide] as the compound, how does the IC50 (JAK1) read?
**A.** The IC50 was 42 nM.

**Q.** What about the IC50 (JAK2) of the same compound?
**A.** Its IC50 is 298 nM.

**Q.** How did the IC50 (JAK1) turn out when CC(C)(C)C(=O)N1CC(CC#N)(n2cc(C(N)=O)c(Nc3ccccc3)n2)C1 [Example 34-37, 1-[3-(cyanomethyl)-1-(2,2-dimethylpropanoyl)azetidin-3-yl]-3-(phenylamino)-1H-pyrazole-4-carboxamide] was run?
**A.** Its IC50 is 138 nM.

**Q.** And the IC50 (JAK2)?
**A.** Its IC50 is 570 nM.
